The text below walks through data of ChEMBL document CHEMBL1201862, “PubChem BioAssay data set” (2004).

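The compound was tested at five concentrations on cells cultured in 96-well plates, with a 48-hour exposure period. Here, GI50 denotes the concentration required for 50% inhibition of growth.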 Active and inactive are the calls of the source. No stated cut-off is given here; in the data, active = GI50 up to about 1.1 µM and inactive = higher. Bounds are passed on as bounds.

Test systems include HOP-18; DLD-1; M19-MEL; DMS-273; XF498; RXF 631; LXFL 529; KM-20L2; DMS-114.
Experiment in all cases: growth of human tumour cells (NCI), 48 h

In the case of `S=c1[nH]nc(Cc2ccccc2)c(=S)[nH]1`, the GI50 in the assay with HOP-18 was 25.4 µM (inactive); in the assay with DLD-1, 94.8 µM (inactive); with M19-MEL, > 100 µM (inactive); with DMS-273, > 100 µM (inactive); in the assay with XF498, > 100 µM (inactive); in the assay on RXF 631, > 100 µM (inactive). For the same molecule, the GI50 in the assay on LXFL 529 is > 100 µM (inactive).
`C#CCNC(=O)NCCCCC(NC(C)=O)C(=O)NCc1ccccc1` (stereo not drawn): the GI50 in the assay on HOP-18 is > 100 µM (inactive); with DLD-1 it was > 100 µM (inactive); with KM-20L2, > 100 µM (inactive); in the assay on M19-MEL, > 100 µM (inactive); with DMS-114, > 100 µM (inactive); with XF498, 0.101 µM (active). Moreover, the GI50 with RXF 631 and with LXFL 529 was > 100 µM (inactive) in each case.
With `N#Cc1cc([N+](=O)[O-])ccc1NC(=O)C(=O)C(C(=O)c1ccc2ccccc2c1)C1OCc2ccccc21` (stereo not drawn), the GI50 in the assay on DLD-1 was 11.1 µM (inactive); in the assay with KM-20L2, 20.7 µM (inactive); with M19-MEL, 11.8 µM (inactive); in the assay on DMS-114, 8.07 µM (inactive); in the assay on RXF 631, 11.3 µM (inactive); in the assay with LXFL 529, 4.41 µM (inactive).
For the molecule `Cc1nc(N)c(-c2ccccc2)s1`, the GI50 is > 100 µM (inactive) in the assay with HOP-18; > 82.6 µM (inactive) in the assay on DLD-1; > 70.8 µM (inactive) with KM-20L2; > 100 µM (inactive) in the assay with M19-MEL; 39.9 µM (inactive) in the assay with DMS-273; > 76 µM (inactive) in the assay on DMS-114. Moreover, the GI50 in the assay on XF498 was 34.6 µM (inactive); in the assay on RXF 631, > 100 µM (inactive); in the assay on LXFL 529 it was > 100 µM (inactive).
On to `CCCN(CCC)C(=O)C(=O)c1c(N)[nH]n(-c2ccccc2)c1=O`, for which the GI50 in the assay on HOP-18 was > 100 µM (inactive); in the assay on DLD-1, 78.3 µM (inactive); in the assay on KM-20L2, > 100 µM (inactive); in the assay on M19-MEL, > 100 µM (inactive); in the assay on DMS-273 it was > 100 µM (inactive); in the assay on DMS-114, > 100 µM (inactive). The values for the GI50 in the assay on XF498, in the assay on RXF 631 and in the assay with LXFL 529 were > 100 µM (inactive), > 100 µM (inactive) and 66.2 µM (inactive), respectively.
Regarding `CN/N=C(/c1nc2ccc([N+](=O)[O-])cc2nc1O)C(O)c1ccc(C(O)/C(=N\NC)c2nc3ccc([N+](=O)[O-])cc3nc2O)cc1` (stereo not drawn), the GI50 is 35.6 µM (inactive) in the assay on DLD-1; 63 µM (inactive) with KM-20L2; > 100 µM (inactive) with M19-MEL; 31.4 µM (inactive) with DMS-273; 7.16 µM (inactive) in the assay with DMS-114; 21.3 µM (inactive) in the assay with RXF 631. The GI50 with LXFL 529 was 20.7 µM (inactive).
`c1ccc2c(c1)SC(=C1Sc3ccccc3S1)S2`: the GI50 with HOP-18 was > 100 µM (inactive); with DLD-1, > 100 µM (inactive); in the assay on KM-20L2 it was > 100 µM (inactive); with M19-MEL it was > 100 µM (inactive); in the assay on DMS-273 it was > 100 µM (inactive); in the assay on DMS-114 it was 69.8 µM (inactive). In addition, the GI50 with XF498, with RXF 631 and in the assay with LXFL 529 was > 100 µM (inactive) throughout.
`O=C1C(=O)N(c2ccc(Cl)cc2)C(=O)C(=O)C1c1nc2ccccc2o1`: the GI50 with DLD-1, with KM-20L2, with M19-MEL, in the assay with DMS-273, in the assay on DMS-114 and in the assay with XF498 was > 100 µM (inactive) throughout. Moreover, the GI50 in the assay on RXF 631 and with LXFL 529 was > 100 µM (inactive) each time.
